According to the NIST ThermoML archive (doi:10.1021/acs.jced.8b00979):
Numbers after ± are expanded uncertainties.

conditions: 288.15 K; 100 kPa; Liquid; Capillary tube (Ostwald / Ubbelohde) method

Going from `CCC(C)CO` (centres undefined) [2-methyl-1-butanol] to `CCCC(C)O` (centres undefined) [pentan-2-ol], the viscosity falls from 6.439 ± 0.26 mPa·s to 5.057 ± 0.2 mPa·s.

With `CCCCCO` [pentan-1-ol] the viscosity was 4.698 ± 0.19 mPa·s.

same assay, conditions: 288.15 K; 100 kPa; Liquid; Vibrating tube method

First: CCC(C)CO (centres undefined) [2-methyl-1-butanol]
Second: CCCC(C)O (centres undefined) [pentan-2-ol]
The mass density of the first is higher: 823.35 ± 0.8 kg/m3 for the first, 813.34 ± 0.79 kg/m3 for the second.

In the case of `CCCCCO` [pentan-1-ol], the mass density is reported as 818.56 ± 0.79 kg/m3.

same assay, conditions: 293.15 K; 100 kPa; Liquid; Capillary tube (Ostwald / Ubbelohde) method

Compared with `CCC(C)CO` (centres undefined) [2-methyl-1-butanol], `CCCC(C)O` (centres undefined) [pentan-2-ol] is lower in viscosity: 5.3 ± 0.21 mPa·s for the first, 4.174 ± 0.17 mPa·s for the second.

Work on `CCCCCO` [pentan-1-ol] yielded a viscosity of 4.043 ± 0.16 mPa·s.

same assay, conditions: 293.15 K; 100 kPa; Liquid; Vibrating tube method

First: CCC(C)CO (centres undefined) [2-methyl-1-butanol]
Second: CCCC(C)O (centres undefined) [pentan-2-ol]
The mass density of the first is higher: 819.64 ± 0.79 kg/m3 for the first, 809.38 ± 0.78 kg/m3 for the second.

In the case of `CCCCCO` [pentan-1-ol], the mass density is reported as 814.92 ± 0.79 kg/m3.

same assay, conditions: 298.15 K; 100 kPa; Liquid; Capillary tube (Ostwald / Ubbelohde) method

Going from `CCC(C)CO` (centres undefined) [2-methyl-1-butanol] to `CCCC(C)O` (centres undefined) [pentan-2-ol], the viscosity falls from 4.501 ± 0.18 mPa·s to 3.398 ± 0.14 mPa·s.

Work on `CCCCCO` [pentan-1-ol] yielded a viscosity of 3.501 ± 0.14 mPa·s.

same assay, conditions: 298.15 K; 100 kPa; Liquid; Vibrating tube method

First: CCC(C)CO (centres undefined) [2-methyl-1-butanol]
Second: CCCC(C)O (centres undefined) [pentan-2-ol]
The mass density of the first is higher: 815.85 ± 0.79 kg/m3 for the first, 805.35 ± 0.78 kg/m3 for the second.

Work on `CCCCCO` [pentan-1-ol] yielded a mass density of 811.26 ± 0.79 kg/m3.

same assay, conditions: 303.15 K; 100 kPa; Liquid; Capillary tube (Ostwald / Ubbelohde) method

First: CCC(C)CO (centres undefined) [2-methyl-1-butanol]
Second: CCCC(C)O (centres undefined) [pentan-2-ol]
The viscosity of the first is higher: 3.825 ± 0.15 mPa·s for the first, 2.82 ± 0.11 mPa·s for the second.

`CCCCCO` [pentan-1-ol] showed a viscosity of 3.028 ± 0.12 mPa·s.

same assay, conditions: 303.15 K; 100 kPa; Liquid; Vibrating tube method

First: CCC(C)CO (centres undefined) [2-methyl-1-butanol]
Second: CCCC(C)O (centres undefined) [pentan-2-ol]
The mass density of the first is higher: 812.12 ± 0.79 kg/m3 for the first, 801.24 ± 0.78 kg/m3 for the second.

With `CCCCCO` [pentan-1-ol] the mass density was 807.57 ± 0.78 kg/m3.

same assay, conditions: 308.15 K; 100 kPa; Liquid; Capillary tube (Ostwald / Ubbelohde) method

Going from `CCC(C)CO` (centres undefined) [2-methyl-1-butanol] to `CCCC(C)O` (centres undefined) [pentan-2-ol], the viscosity falls from 3.265 ± 0.13 mPa·s to 2.336 ± 0.094 mPa·s.

With `CCCCCO` [pentan-1-ol] the viscosity was 2.671 ± 0.11 mPa·s.

same assay, conditions: 308.15 K; 100 kPa; Liquid; Vibrating tube method

Compared with `CCC(C)CO` (centres undefined) [2-methyl-1-butanol], `CCCC(C)O` (centres undefined) [pentan-2-ol] is lower in mass density: 808.29 ± 0.78 kg/m3 for the first, 797.05 ± 0.77 kg/m3 for the second.

For `CCCCCO` [pentan-1-ol], the mass density was 803.86 ± 0.78 kg/m3.

same assay, conditions: 313.15 K; 100 kPa; Liquid; Capillary tube (Ostwald / Ubbelohde) method

Compared with `CCC(C)CO` (centres undefined) [2-methyl-1-butanol], `CCCC(C)O` (centres undefined) [pentan-2-ol] is lower in viscosity: 2.783 ± 0.11 mPa·s for the first, 1.99 ± 0.08 mPa·s for the second.

`CCCCCO` [pentan-1-ol] gave a viscosity of 2.335 ± 0.094 mPa·s.

same assay, conditions: 313.15 K; 100 kPa; Liquid; Vibrating tube method

First: CCC(C)CO (centres undefined) [2-methyl-1-butanol]
Second: CCCC(C)O (centres undefined) [pentan-2-ol]
The mass density of the first is higher: 804.41 ± 0.78 kg/m3 for the first, 792.78 ± 0.77 kg/m3 for the second.

Work on `CCCCCO` [pentan-1-ol] yielded a mass density of 800.11 ± 0.78 kg/m3.

same assay, conditions: 318.15 K; 100 kPa; Liquid; Capillary tube (Ostwald / Ubbelohde) method

Compared with `CCC(C)CO` (centres undefined) [2-methyl-1-butanol], `CCCC(C)O` (centres undefined) [pentan-2-ol] is lower in viscosity: 2.379 ± 0.096 mPa·s for the first, 1.706 ± 0.069 mPa·s for the second.

Molecule `CCCCCO` [pentan-1-ol] has a viscosity of 2.052 ± 0.083 mPa·s.

same assay, conditions: 318.15 K; 100 kPa; Liquid; Vibrating tube method

Compared with `CCC(C)CO` (centres undefined) [2-methyl-1-butanol], `CCCC(C)O` (centres undefined) [pentan-2-ol] is lower in mass density: 800.47 ± 0.78 kg/m3 for the first, 788.42 ± 0.77 kg/m3 for the second.

Molecule `CCCCCO` [pentan-1-ol] has a mass density of 796.32 ± 0.77 kg/m3.

same assay, conditions: 323.15 K; 100 kPa; Liquid; Capillary tube (Ostwald / Ubbelohde) method

Compared with `CCC(C)CO` (centres undefined) [2-methyl-1-butanol], `CCCC(C)O` (centres undefined) [pentan-2-ol] is lower in viscosity: 2.06 ± 0.083 mPa·s for the first, 1.472 ± 0.06 mPa·s for the second.

Molecule `CCCCCO` [pentan-1-ol] has a viscosity of 1.81 ± 0.073 mPa·s.

same assay, conditions: 323.15 K; 100 kPa; Liquid; Vibrating tube method

Compared with `CCC(C)CO` (centres undefined) [2-methyl-1-butanol], `CCCC(C)O` (centres undefined) [pentan-2-ol] is lower in mass density: 796.47 ± 0.77 kg/m3 for the first, 783.99 ± 0.76 kg/m3 for the second.

Work on `CCCCCO` [pentan-1-ol] yielded a mass density of 792.48 ± 0.77 kg/m3.

same assay, conditions: 328.15 K; 100 kPa; Liquid; Capillary tube (Ostwald / Ubbelohde) method

First: CCC(C)CO (centres undefined) [2-methyl-1-butanol]
Second: CCCC(C)O (centres undefined) [pentan-2-ol]
The viscosity of the first is higher: 1.787 ± 0.072 mPa·s for the first, 1.306 ± 0.053 mPa·s for the second.

Work on `CCCCCO` [pentan-1-ol] yielded a viscosity of 1.607 ± 0.065 mPa·s.

same assay, conditions: 328.15 K; 100 kPa; Liquid; Vibrating tube method

Compared with `CCC(C)CO` (centres undefined) [2-methyl-1-butanol], `CCCC(C)O` (centres undefined) [pentan-2-ol] is lower in mass density: 792.41 ± 0.77 kg/m3 for the first, 779.46 ± 0.76 kg/m3 for the second.

`CCCCCO` [pentan-1-ol] showed a mass density of 788.61 ± 0.76 kg/m3.
